Among the data in ChEMBL document CHEMBL1201862, “PubChem BioAssay data set” (2004) are EC50, IC50 and AC50 values, retold here.

Experiment [1] relates to Streptococcus sp. 'group A'. Kind of experiment: Streptococcus pyogenes SK(-)GAS viability under kanamycin – luminescence, BacTiterGlo, confirmation, counter-screen for streptokinase expression inhibitor project, dose response (AID 1900). Type of experiment: functional, organism-based.
The target in experiment [2] is Serine/threonine-protein phosphatase PP1-alpha catalytic subunit (Homo sapiens, UniProt P62136). The experiment is described as follows: inhibition of protein phosphatase 1 activity – biochemical, fluorescence, dose response (AID 2403).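 Further: phosphatase turnover of OMFP into fluorescent 3-O-methylfluorescein.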
A further experiment has as its target T1, Streptokinase A (Streptococcus pyogenes serotype M1, UniProt P10520).
T1 sequence (P10520 whole entry): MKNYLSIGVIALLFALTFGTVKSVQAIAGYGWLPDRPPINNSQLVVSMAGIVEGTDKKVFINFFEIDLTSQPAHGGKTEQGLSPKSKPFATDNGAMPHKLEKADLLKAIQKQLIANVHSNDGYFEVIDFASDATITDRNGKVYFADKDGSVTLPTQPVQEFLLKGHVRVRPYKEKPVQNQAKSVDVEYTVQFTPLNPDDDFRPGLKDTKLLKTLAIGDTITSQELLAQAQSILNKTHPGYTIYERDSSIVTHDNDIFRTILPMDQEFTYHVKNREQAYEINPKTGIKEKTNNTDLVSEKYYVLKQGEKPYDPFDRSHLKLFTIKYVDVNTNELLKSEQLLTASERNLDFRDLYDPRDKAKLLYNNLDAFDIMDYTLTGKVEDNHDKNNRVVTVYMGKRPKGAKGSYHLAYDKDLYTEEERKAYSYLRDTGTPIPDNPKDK
The experiment is described as follows: viability-normalized secreted streptokinase activity reduction – plasminogen activation absorbance, OD405, dose response (AID 1914).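 Further: secreted streptokinase activity via plasminogen activation per viability signal from cell pellet.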 Type of experiment: functional, Streptococcus pyogenes M1 GAS.

Experiment [3] can be described thus: Trypanosoma cruzi growth suppression in host cells – NIH3T3 host cells, beta-gal luminescence, confirmation (AID 2044).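 Further: intracellular parasites grown in NIH/3T3 mouse fibroblasts as host cells; luminescent beta-galactosidase reporter signal from transgenic T. cruzi replicating inside host cells; inhibitors lower the luminescence signal.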 Type of experiment: functional, cell-based.
The target in experiment [4] is Serine/threonine-protein phosphatase (Homo sapiens, UniProt Q9BPW0). Kind of experiment: Counterscreen for inhibitors of PP1: fluorescence-based biochemical high throughput dose response assay to identify inhibitors of Protein Phosphatase 5 (PP5). [Related pubchem assays: 2034 (Summary (PP5 inhibitors)), 1987 (PP5 inhibitors in singlate), 2235 (PP1 inhibitors in singlate)].

Experiment [5] is described as follows: NIH3T3 cell viability loss – ATP luminescence, mouse fibroblasts, counter-screen, dose response (AID 2010).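 Further: cells exposed to compound for about 90 hours before reading.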 It is filed as functional, cell-based.
For a further experiment, the system named is Streptococcus. The experiment is described as follows: GAS UMAA2166 growth inhibition – luminescence, BacTiterGlo, counter-screen for streptokinase expression inhibitor project, dose response (AID 1915).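 Further: potency for reduction of bacterial viability or growth.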 It is filed as functional, organism-based.
Experiment [6] is described as follows: Luminescence-based counterscreen assay for KLF5 inhibitors: dose response cell-based high throughput screening assay to identify cytotoxic compounds using the IEC-6 intestinal epithelial cell line. [Related pubchem assays: 1700 (Primary screen.), 1834 (Confirmation screen.), 1858 (Summary AID.), 1905 (Counterscreen.)]. It is filed as functional.
Experiment [7] has as its target T2, Microphthalmia-associated transcription factor (Homo sapiens, UniProt O75030).
T2 sequence (O75030 whole entry): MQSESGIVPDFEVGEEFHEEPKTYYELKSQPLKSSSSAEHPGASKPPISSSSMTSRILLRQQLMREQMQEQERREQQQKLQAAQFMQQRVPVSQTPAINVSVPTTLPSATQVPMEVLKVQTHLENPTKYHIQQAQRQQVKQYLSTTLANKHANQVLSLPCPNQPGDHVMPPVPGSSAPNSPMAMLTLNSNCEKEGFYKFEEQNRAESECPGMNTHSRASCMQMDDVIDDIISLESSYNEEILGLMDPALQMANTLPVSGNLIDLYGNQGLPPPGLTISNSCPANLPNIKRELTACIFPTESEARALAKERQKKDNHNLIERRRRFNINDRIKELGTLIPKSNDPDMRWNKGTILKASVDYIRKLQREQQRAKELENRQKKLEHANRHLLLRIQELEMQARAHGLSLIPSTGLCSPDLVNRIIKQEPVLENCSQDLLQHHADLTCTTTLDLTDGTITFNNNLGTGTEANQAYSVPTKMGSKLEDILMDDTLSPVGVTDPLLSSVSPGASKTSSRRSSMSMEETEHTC
The experiment is described as follows: reducers of TRPM1 reporter luminescence, concentration series – cell-based, SK-MEL-5, cherry-picked, set 3, MITF inhibitor project, dose response (AID 493073).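 Further: SK-MEL-5 melanoma cells with luciferase driven by the MITF target TRPM1 promoter.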 It is filed as functional.

Experiment [8] has as its target T3, Eukaryotic translation initiation factor 2-alpha kinase 3 (Homo sapiens, UniProt Q9NZJ5). Kind of experiment: Dose response cell-based high-throughput screening assay to measure PERK inhibition. [Related pubchem assays: 1416 ]. Type of experiment: functional.
Experiment [9] addresses T3, Eukaryotic translation initiation factor 2-alpha kinase 3. The experiment is described as follows: Counterscreen assay for PERK inhibitors: Dose response cell-based high throughput screening assay to measure inhibition of PERK at 6 hours. [Related pubchem assays: 1522, 1416 ]. It is filed as functional.
Another experiment deals with T4, Aminopeptidase N (Plasmodium falciparum FcB1/Columbia, UniProt O96935).
T4 sequence (O96935 whole entry): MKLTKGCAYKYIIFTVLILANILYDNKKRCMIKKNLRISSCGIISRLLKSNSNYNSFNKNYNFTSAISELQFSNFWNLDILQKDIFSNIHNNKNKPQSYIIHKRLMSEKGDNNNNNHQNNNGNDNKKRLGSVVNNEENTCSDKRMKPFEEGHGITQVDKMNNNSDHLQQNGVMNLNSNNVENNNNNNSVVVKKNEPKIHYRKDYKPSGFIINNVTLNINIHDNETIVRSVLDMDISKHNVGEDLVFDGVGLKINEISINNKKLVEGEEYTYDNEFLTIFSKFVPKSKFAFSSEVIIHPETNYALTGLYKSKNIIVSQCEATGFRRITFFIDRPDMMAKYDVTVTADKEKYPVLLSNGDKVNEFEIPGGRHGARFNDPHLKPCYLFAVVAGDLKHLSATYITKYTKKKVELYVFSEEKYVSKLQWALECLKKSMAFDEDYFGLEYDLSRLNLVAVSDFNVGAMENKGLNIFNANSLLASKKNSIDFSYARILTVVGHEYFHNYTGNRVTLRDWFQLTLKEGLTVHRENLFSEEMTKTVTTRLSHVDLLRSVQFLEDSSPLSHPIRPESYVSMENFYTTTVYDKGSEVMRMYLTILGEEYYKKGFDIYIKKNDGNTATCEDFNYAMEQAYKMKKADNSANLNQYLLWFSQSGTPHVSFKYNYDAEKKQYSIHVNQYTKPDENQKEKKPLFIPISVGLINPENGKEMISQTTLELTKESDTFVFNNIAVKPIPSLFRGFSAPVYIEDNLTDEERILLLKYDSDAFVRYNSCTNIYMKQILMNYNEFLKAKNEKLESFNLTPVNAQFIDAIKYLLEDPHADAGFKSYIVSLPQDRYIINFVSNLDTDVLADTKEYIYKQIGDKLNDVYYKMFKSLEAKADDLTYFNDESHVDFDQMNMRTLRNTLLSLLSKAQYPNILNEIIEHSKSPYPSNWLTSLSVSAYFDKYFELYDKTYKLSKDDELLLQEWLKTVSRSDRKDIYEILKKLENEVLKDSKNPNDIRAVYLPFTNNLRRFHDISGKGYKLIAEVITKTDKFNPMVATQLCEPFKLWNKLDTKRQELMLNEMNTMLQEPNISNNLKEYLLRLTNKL
Kind of experiment: malaria alanyl aminopeptidase activity blockers – biochemical, fluorogenic H-Leu-NHMec substrate, 1536-well (AID 1445). Also noted: species or system Plasmodium falciparum 3D7, 3D7.

A short description of experiment [10]: M. tuberculosis H37Rv growth inhibitors, H37Rv strain (AID 1626). It is filed as functional.
A short description of experiment [11]: antiviral protection against BTV-induced cell death – arbovirus, BSR cells, confirmation (AID 1250).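 Further: protection from viral cytopathic effect measured as cell viability by ATP luminescence.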 Type of experiment: functional.
The next experiment concerns the target Melanocortin receptor 4 (Homo sapiens, UniProt P32245). Kind of experiment: inhibitors of MC4R cAMP signaling – cell-based, TR-FRET, biased antagonists, dose response (AID 602298).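 Further: antagonist potency against agonist-stimulated cAMP production.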 It is filed as functional.
Experiment [12] is described as follows: cAMP pathway inhibition in counterscreen cell line – TR-FRET cAMP detection, counter-screen for MC4R biased antagonist project, dose response (AID 602305).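 Further: U2OS cells stimulated with forskolin near its EC80 as the cAMP inducer; potency is for inhibition of forskolin-stimulated cAMP signaling.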 Type of experiment: functional, cell-based.
Experiment [13] can be described thus: mitochondrial function rescue without frataxin homolog – Friedreich's ataxia, plus single-dose screen, dose response (AID 1465).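 Further: yeast depleted of Yfh1p frataxin homolog grown on glycerol needing respiration; WST-1 tetrazolium dye reduction as measure of cellular dehydrogenase metabolic activity.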 It is filed as functional.

Activity calls are given as the source filed them.

T3 sequence (Q9NZJ5 whole entry): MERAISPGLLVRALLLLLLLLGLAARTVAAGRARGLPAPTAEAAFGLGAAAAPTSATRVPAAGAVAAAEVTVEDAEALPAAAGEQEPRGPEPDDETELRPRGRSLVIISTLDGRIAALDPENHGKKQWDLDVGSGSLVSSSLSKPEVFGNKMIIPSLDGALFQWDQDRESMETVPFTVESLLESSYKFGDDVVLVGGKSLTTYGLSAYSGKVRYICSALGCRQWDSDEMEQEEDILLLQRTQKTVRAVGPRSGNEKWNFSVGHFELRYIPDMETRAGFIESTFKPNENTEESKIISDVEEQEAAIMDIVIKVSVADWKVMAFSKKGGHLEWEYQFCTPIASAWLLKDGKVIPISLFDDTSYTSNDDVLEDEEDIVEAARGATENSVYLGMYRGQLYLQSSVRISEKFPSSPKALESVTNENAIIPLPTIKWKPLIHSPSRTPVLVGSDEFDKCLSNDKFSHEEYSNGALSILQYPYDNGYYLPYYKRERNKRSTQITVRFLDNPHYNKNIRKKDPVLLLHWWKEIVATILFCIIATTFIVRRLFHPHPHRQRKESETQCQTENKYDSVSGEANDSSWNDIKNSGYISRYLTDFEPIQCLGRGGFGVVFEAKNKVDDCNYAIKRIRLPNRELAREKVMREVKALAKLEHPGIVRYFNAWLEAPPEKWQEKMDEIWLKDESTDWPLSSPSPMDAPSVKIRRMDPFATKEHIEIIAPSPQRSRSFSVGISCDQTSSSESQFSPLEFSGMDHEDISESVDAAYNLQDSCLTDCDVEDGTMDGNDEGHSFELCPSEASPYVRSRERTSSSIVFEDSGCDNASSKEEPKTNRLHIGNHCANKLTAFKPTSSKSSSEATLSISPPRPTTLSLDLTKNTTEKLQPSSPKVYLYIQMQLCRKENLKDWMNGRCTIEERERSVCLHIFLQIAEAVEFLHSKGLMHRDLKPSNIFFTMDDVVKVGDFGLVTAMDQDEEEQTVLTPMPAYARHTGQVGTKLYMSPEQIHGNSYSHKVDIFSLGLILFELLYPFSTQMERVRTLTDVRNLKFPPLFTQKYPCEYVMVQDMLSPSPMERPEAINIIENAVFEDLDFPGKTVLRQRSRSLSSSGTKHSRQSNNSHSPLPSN
Chain of Melanocortin receptor 4 (P32245 whole entry): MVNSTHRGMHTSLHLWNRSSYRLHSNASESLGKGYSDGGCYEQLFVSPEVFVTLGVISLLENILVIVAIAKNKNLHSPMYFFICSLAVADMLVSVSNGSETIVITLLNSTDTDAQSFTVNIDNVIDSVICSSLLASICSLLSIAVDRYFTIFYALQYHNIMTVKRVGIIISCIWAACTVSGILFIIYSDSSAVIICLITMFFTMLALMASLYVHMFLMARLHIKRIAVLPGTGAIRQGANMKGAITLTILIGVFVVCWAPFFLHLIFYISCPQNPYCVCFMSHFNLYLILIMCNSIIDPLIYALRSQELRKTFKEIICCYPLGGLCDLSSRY
Chain of Serine/threonine-protein phosphatase (Q9BPW0 whole entry): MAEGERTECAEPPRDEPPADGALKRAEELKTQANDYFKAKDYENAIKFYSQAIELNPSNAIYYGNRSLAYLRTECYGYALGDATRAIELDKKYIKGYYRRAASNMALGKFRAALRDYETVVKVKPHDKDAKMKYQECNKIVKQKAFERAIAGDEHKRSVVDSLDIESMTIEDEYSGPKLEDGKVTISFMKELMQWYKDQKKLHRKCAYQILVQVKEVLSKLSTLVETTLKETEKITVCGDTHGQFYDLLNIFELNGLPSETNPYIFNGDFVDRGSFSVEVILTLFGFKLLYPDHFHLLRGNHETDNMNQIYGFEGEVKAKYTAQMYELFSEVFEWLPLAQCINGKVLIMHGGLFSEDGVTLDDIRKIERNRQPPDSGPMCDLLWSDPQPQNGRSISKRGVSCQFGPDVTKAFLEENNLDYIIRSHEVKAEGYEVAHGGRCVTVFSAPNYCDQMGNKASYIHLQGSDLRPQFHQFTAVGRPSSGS
Chain of Serine/threonine-protein phosphatase PP1-alpha catalytic subunit (P62136 whole entry): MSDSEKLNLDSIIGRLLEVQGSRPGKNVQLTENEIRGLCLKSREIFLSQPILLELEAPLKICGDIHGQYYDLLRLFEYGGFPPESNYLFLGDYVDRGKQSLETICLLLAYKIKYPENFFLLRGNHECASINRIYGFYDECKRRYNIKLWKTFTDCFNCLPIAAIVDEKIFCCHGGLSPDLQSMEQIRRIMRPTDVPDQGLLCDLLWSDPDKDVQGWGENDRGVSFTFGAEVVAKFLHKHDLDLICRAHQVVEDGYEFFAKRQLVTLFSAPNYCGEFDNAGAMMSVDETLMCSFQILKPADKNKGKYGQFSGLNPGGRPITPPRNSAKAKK

`COc1ccc(OCCCC(=O)Nc2nc(-c3ccccn3)cs2)cc1`: the 50% effective concentration (EC50) is 31.2 µM (active) in [1]; > 150 µM (not active) at Streptokinase A; 3.24 µM (active) in experiment [3]; 4.35 µM (active) in [5]; > 150 µM (not active) in the experiment with Streptococcus. The half-inhibitory concentration (IC50) in [2] is 4.59 µM (active); in experiment [4], > 67 µM (not active).

For the molecule `CCCc1ccc(-c2ccc(/C=C/C(=O)O)cc2)nc1`, in experiment [6], the IC50 was > 39.8 µM (not active). Besides, the AC50 in experiment [7] is 39 nM (active).

`COc1cc([N+](=O)[O-])cc2sc(NC(=O)C(C)(C)C)nc12`: the EC50 in experiment [8] and in [9] was > 55.7 µM (not active) throughout.

In the case of `CCOc1ccc2nc(NC(=O)CSc3nc(O)c(C#N)c(-c4ccccc4)n3)sc2c1`, the IC50 on Aminopeptidase N was 24.1 µM (active); in experiment [10] it was > 100 µM (active); in experiment [11] it was 37.9 µM (active); on Melanocortin receptor 4, > 64.6 µM (inactive); in [12], > 64.6 µM (inactive).

For `CCCC(C(=O)O)N1C(=O)/C(=C/c2cccn2C)SC1=S` (configuration not stated), the EC50 in [13] was > 100 µM (active).
